This note sets out measurements from PubChem BioAssay (NCI).

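Method: 48-hour compound exposure of cells in 96-well plates, five concentrations, linear interpolation of endpoints. Definition used: TGI = concentration required for complete inhibition of growth.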

Some test systems named below: 786-0 renal; A549 NSCLC; ACHN renal; DU-145 prostate; HT29 colon; K-562 leukemia; OVCAR-4 ovarian; SF-295 CNS; SK-MEL-2 melanoma; T-47D breast.
Holding throughout (assay): NCI-60 cell line screen, 48 h

Take `CC1=C[P+](c2ccccc2)(c2ccccc2)c2ccccc2O1`: the TGI was > 100 µM in the experiment on 786-0 renal; > 100 µM in the experiment with A549 NSCLC; > 100 µM in the experiment on ACHN renal; > 100 µM in the experiment on DU-145 prostate; 15.7 µM in the experiment with HT29 colon; > 100 µM with K-562 leukemia. The TGI in the experiment on OVCAR-4 ovarian was > 100 µM; with SF-295 CNS, 38.9 µM; in the experiment on SK-MEL-2 melanoma, 94.6 µM; in the experiment with T-47D breast, 7.79 µM.
As to `CCC(C)C(Nc1c2ccccc2nc2c(C(=O)NCCN(C)C)cccc12)C(=O)O` (stereo not given), the TGI in the experiment on 786-0 renal is > 100 µM; in the experiment on A549 NSCLC, > 100 µM; in the experiment with ACHN renal, > 100 µM; in the experiment on DU-145 prostate, > 100 µM; in the experiment on HT29 colon it was 17.1 µM; in the experiment with K-562 leukemia it was > 100 µM. For the same compound, the TGI came out at 25.8 µM in the experiment with OVCAR-4 ovarian, 40.9 µM in the experiment with SF-295 CNS and 46.7 µM with SK-MEL-2 melanoma.
As to `CCOC(=O)NC(Nc1ccc(F)cc1F)(C(F)(F)F)C(F)(F)F`, the TGI with 786-0 renal, with A549 NSCLC, in the experiment on ACHN renal, in the experiment with DU-145 prostate, with HT29 colon and in the experiment on K-562 leukemia was > 100 µM in each case. The TGI with SF-295 CNS, in the experiment with SK-MEL-2 melanoma and in the experiment on T-47D breast was > 100 µM each time.
On to `CC1[C@@]2(O[C@@H]3C=C4C5CCC6Cc7nc8c(nc7C[C@@]6(C)C5C[C@H](O)[C@@]4(C)[C@]13O)CC1CCc3c(cc4c5c3C(O)C[C@H]5[C@@H](C)C3(O4)OC(C)(C)CC3O)[C@]1(C)C8)O[C@@](C)(CO)C[C@@H]2O` (stereo not given in full), for which the TGI in the experiment with A549 NSCLC is > 3.72 µM; with HT29 colon it was 1.65 µM; in the experiment with K-562 leukemia, > 3.72 µM; in the experiment with SF-295 CNS, 0.182 µM; in the experiment with SK-MEL-2 melanoma, > 3.72 µM.
As to `CN(C)CCNC(=O)c1cccc2c1C(=O)c1ccccc1C2=O`, the TGI with A549 NSCLC is > 100 µM; in the experiment with HT29 colon it was > 86.6 µM; in the experiment with K-562 leukemia, 54.5 µM; in the experiment with OVCAR-4 ovarian it was 88.8 µM; with SF-295 CNS, > 100 µM; in the experiment on SK-MEL-2 melanoma, > 90.5 µM.
Regarding `CCCCn1c(=O)[nH]c2c(N)ncnc21`, the TGI with 786-0 renal, in the experiment on A549 NSCLC, in the experiment on ACHN renal, in the experiment with DU-145 prostate, in the experiment on HT29 colon and with K-562 leukemia was > 100 µM in each case. The TGI in the experiment on OVCAR-4 ovarian, with SF-295 CNS and in the experiment on SK-MEL-2 melanoma was > 100 µM in each case.
As to `CC(C#N)(NO)C(C)(C#N)NO` (stereo not given), the TGI in the experiment on 786-0 renal, in the experiment with A549 NSCLC, with DU-145 prostate, with HT29 colon, in the experiment with K-562 leukemia and with OVCAR-4 ovarian was > 100 µM throughout. In addition, the TGI in the experiment on SK-MEL-2 melanoma and in the experiment with T-47D breast was > 100 µM throughout.
Consider `CC1=C(C)C(=O)OC(C(C)(O)C2(O)CC3OC34C3CC(O)C56OC5C=CC(=O)C6(C)C3CCC42C)C1` (stereo not given), for which the TGI in the experiment on A549 NSCLC is 15.5 µM; in the experiment with ACHN renal it was 2.45 µM; in the experiment with DU-145 prostate, 15.8 µM; in the experiment on HT29 colon, 4.2 µM; in the experiment with K-562 leukemia, > 100 µM; in the experiment with OVCAR-4 ovarian, 20.3 µM. In addition, the TGI in the experiment on SF-295 CNS was 15.2 µM; in the experiment on SK-MEL-2 melanoma, 10.8 µM; with T-47D breast it was > 43.3 µM.
For the compound `Cc1[nH]c(=O)nc(N/N=C/c2c3ccccc3c(Cl)c3ccccc23)c1C(=O)Nc1ccc(Cl)cc1`, the TGI in the experiment on 786-0 renal, in the experiment with A549 NSCLC, in the experiment on ACHN renal, in the experiment with DU-145 prostate, in the experiment on HT29 colon and with K-562 leukemia was > 100 µM each time. Besides, the TGI in the experiment with OVCAR-4 ovarian, in the experiment on SK-MEL-2 melanoma and in the experiment on T-47D breast was > 100 µM each time.
For `O=C(N/N=C\c1ccc(Cl)cc1)Nc1ccc2ccccc2c1`, the TGI in the experiment with 786-0 renal was 38.4 µM; with A549 NSCLC, > 100 µM; with ACHN renal it was > 100 µM; with DU-145 prostate, > 100 µM; in the experiment on HT29 colon, > 100 µM; in the experiment on K-562 leukemia, > 100 µM. Moreover, the TGI with OVCAR-4 ovarian is 39.2 µM; in the experiment on SK-MEL-2 melanoma, > 100 µM; in the experiment on T-47D breast it was > 100 µM.
With `O=C(Nc1ccccc1C(=O)NCc1ccccc1)/C(=C/c1ccccc1O)NC(=O)c1ccccc1`, the TGI in the experiment with 786-0 renal, in the experiment with A549 NSCLC, with ACHN renal, with DU-145 prostate, with HT29 colon and in the experiment with K-562 leukemia was > 100 µM throughout. Further, the TGI in the experiment on SF-295 CNS, in the experiment with SK-MEL-2 melanoma and with T-47D breast was > 100 µM each time.
Take `CN(C)N1C(=O)C(=O)N(c2cccc3ccccc23)C1=O`: the TGI in the experiment with A549 NSCLC, with ACHN renal, in the experiment on DU-145 prostate, in the experiment on HT29 colon, in the experiment with K-562 leukemia and in the experiment with OVCAR-4 ovarian was > 10 µM each time. Also, the TGI in the experiment on SF-295 CNS, with SK-MEL-2 melanoma and with T-47D breast was > 10 µM in each case.
Turning to `CCOP(=O)(OCC)C(c1ccc(F)cc1)N(C(=O)NC(F)(F)F)c1ccc(F)cc1` (stereo not given), the TGI in the experiment with 786-0 renal, in the experiment on A549 NSCLC, in the experiment with ACHN renal, in the experiment on DU-145 prostate, in the experiment on HT29 colon and in the experiment on K-562 leukemia was > 100 µM throughout. Moreover, the TGI with SF-295 CNS is > 100 µM.
As for `O=C1/C(=C/c2cccc([N+](=O)[O-])c2)N=C(c2ccccc2)N1c1nc2ccc(Sc3ccccc3)cc2[nH]1`, the TGI in the experiment with 786-0 renal, with A549 NSCLC, in the experiment on ACHN renal, with HT29 colon, in the experiment on K-562 leukemia and in the experiment on OVCAR-4 ovarian was > 100 µM each time. The TGI in the experiment on SF-295 CNS, in the experiment on SK-MEL-2 melanoma and in the experiment with T-47D breast was > 100 µM throughout.
Turning to `O=c1cc(NNc2ccccc2)[nH]c(=O)[nH]1`, the TGI with 786-0 renal is 29.6 µM; in the experiment with A549 NSCLC, > 100 µM; in the experiment on ACHN renal, 26.1 µM; in the experiment on DU-145 prostate it was > 100 µM; with HT29 colon it was 39 µM; with K-562 leukemia, 91.1 µM. Moreover, the TGI with OVCAR-4 ovarian is 29.5 µM; in the experiment with SF-295 CNS, > 100 µM.
